Measured values taken from US8871900B2, “Fibroblast growth factor (FGF) analogs and uses thereof” (University of Rochester, priority 2008, dated 2014).
Peptide text beside a SMILES is read from it.

Columns and labels:
[1] = tested on: platelet; experiment: Platelet aggregation after 4 Gy TBI; assay type: in vivo, mouse; settings: day 29 after 4 Gy TBI; FGF-P right post-IR daily for 6 day; P<0.05
Source text: One of the major functions of platelet is to aggregate on the wounded site as first step to block the bleeding vessel. […] This recovery is statistically different (FIG. 18D P<0.05).

[2] = tested on: BM cells (megakaryocyte colony); experiment: Megakaryocyte colony formation of BM cells (MegaCult-C); assay type: cell-based, mouse (Balb/c); settings: cytokine cocktail reduced to 50%; FGF-P 100 ng/ml
Source text: (§1) Survival of ARS depends on rapid reconstitution of hematopoiesis after IR-induced myelosuppression. […] However, the timing and mechanism of effect on BM stem cells is unknown. Also unclear are the number of FGFRs on hematopoietic stem cells (HSCs) and their role in reconstitution after IR. […] To characterize the effects of FGF-P on BM, the study approach was to obtain fresh BM (including both HSCs and MSCs) from Balb/c mice, and culture it under varying conditions (3 D culture or 2 D round-bottom well) in triplicate for 1-3 weeks. The BM cells were stimulated with FGF-P at different doses (as test) or with EPO, TPO, GM-CSF or native FGF2 (as a positive control). The cultures were examined using several methods including colony count, photography, CyQUANT® assay and ^3H-TdR incorporation.

[3] = tested on: epithelial cells (SW480, a cell line from colon); experiment: Growth bioassay, epithelial cells; assay type: cell-based; settings: FGF-P added to culture media
Method: (§2) These clusters can be counted thus allowing for measurement of relative binding coefficients. To test the feasibility of binding coefficient measurement, competition experiments were performed. Free FGF-P (30 ug/ml) was added to cells for 20 min and then the biotin-FGF-P (1 μg/mL) was added. One hour later, the streptavidin-FITC was added and analyzed by flow cytometry. […] In a third test, a bioassay was performed. FGF-P was added to culture media of two types of cells: endothelial cells (adult bovine aorta endothelium) and epithelial cells (SW480, a cell line from colon).
(§3) Three preliminary experiments were carried out using FGF-P in vitro to confirm its activity. First, the biotin conjugated FGF-P was used as a tool to examine cell surface binding. AsPC-1 pancreatic cancer epithelial cells are known to have high levels of FGFR and were used for this study. ASPC-1 cells were incubated with 1 μg/ml of biotin-FGF-P and then labeled with streptavidin-FITC. The cells were then analyzed using an imaging flow cytometer (Amnis Imagestream). This device can image each cell as it passes through the laser, and it can then sort cells according to both staining and morphological characteristics. […] These clusters were counted, allowing for measurement of relative binding coefficients. […] One hour later, streptavidin-FITC was added and analyzed by flow cytometry. […]

[4] = tested on: MCP-1, IL-6, TNFα; experiment: Plasma inflammatory molecules after sub-TBI (Luminex bead array); assay type: in vivo, mouse (Balb/c); settings: Balb/c, 12 Gy sub-TBI, 3.5 days; FGF-P 2 mg/kg at 10 min post-IR and daily for two days
Method: Bead array technology has been developed to facilitate the study of cytokine expression profiles in normal tissues following radiation. Bead arrays have several advantages over ELISA. First, mice have a limited blood volume (0.3-0.4 ml of plasma/mouse). Each ELISA typically requires approximately 0.1 ml and thus only a limited number of assays are possible. Secondly, the time required to perform ELISAs one by one stresses the system in a large experiment and would be difficult to perform in the field in case of a radiological event. The Luminex bead array technology was used. The paired monoclonal antibodies, the highly-purified protein standards, and the more than 50 different cytokinespecific beads were purchased. In these studies, Balb/c mice received 12 Gy sub-TBI and then im injection of vehicle alone (0.2 ml of saline), FGF-P (2 mg/kg at 10 min post-IR and daily for two days), or Amifostine (200 mg/kg, either 30 min before IR, or 10 min after IR). The samples were collected 3.5 days after IR.
All three of these cytokines are associated with increased severity and progression of radiation-related inflammatory toxicity in mouse and man.

[5] = tested on: endothelial cells (adult bovine aorta endothelium); experiment: Growth bioassay, endothelial cells; assay type: cell-based; settings: FGF-P added to culture media
Method: as §2, §3

[6] = tested on: irradiated human cells; experiment: Responsiveness of irradiated human cells; assay type: cell-based
[7] = Plasma endotoxin (LPS) after TBI; assay type: in vivo, mouse; settings: IR mice
Source text: This relates with the FGF-P promotion of WBC regeneration. The low endotoxin indicates a low probability of endothelium damage and less consumption of platelet, which promotes the recovery of homeostasis of TBI mice.

[8] = tested on: BM cells; experiment: BM cell growth in round-bottom 96 well 2 D culture (CyQUANT); assay type: cell-based, mouse (Balb/c); settings: FGF-P 500 ng/ml
Source text: as §1

For `CC(C)C[C@H](NC(=O)[C@H](C)NC(=O)[C@@H](NC(=O)[C@H](Cc1ccc(O)cc1)NC(=O)[C@H](Cc1c[nH]c2ccccc12)NC(=O)[C@H](CO)NC(=O)[C@H](CO)NC(=O)[C@H](Cc1ccc(O)cc1)NC(=O)[C@H](CCCCN)NC(=O)[C@H](CCCNC(=N)N)NC(=O)[C@H](CO)NC(=O)[C@H](CCCNC(=N)N)NC(=O)[C@H](Cc1ccc(O)cc1)NC(=O)[C@@H](N)CS)C(C)C)C(=O)N[C@@H](CCCCN)C(=O)N[C@@H](CCCNC(=N)N)C(=O)N[C@@H](CS)C(=O)O` [FGF-P, CYRSRKYSSWYVALKRC] (H-CYRSRKYSSWYVALKRC-OH; N-terminus and C-terminus assumed), the platelet aggregation [1] was “recovered towards normal”, the megakaryocyte colony formation [2] was “greatly stimulated the formation of megakaryocyte colony to the level as native FGF2” and the growth of epithelium [3] was “stimulated the growth of both endothelium and epithelium”. For the same molecule, the “plasma MCP-1, IL-6 and TNFα” value [4] was “normalized or near-normalized these factors”, the growth of endothelium [5] was “stimulated the growth of both endothelium and epithelium” and the “responsiveness of irradiated human cells” value [6] was “maintain their responsiveness to FGF-P”. For the same molecule, the “plasma level of endotoxin (LPS)” value [7] was “reduced the LPS level” and the “growth of BM cells” value [8] was “stimulated the growth of BM cells in a similar pattern as TPO, EPO and GM-CSF”.
